≈ marks a conversion by molar mass, not a printed value.

Series [1] in a line: Cell viability in HQ-induced oxidative stress (MTT). The class given is cell-based, human. To be noted: human, ARPE-19 cells; ARPE-19, 600 μM HQ alone. Here is the method:
(§1) […] Cells were rinsed once using an FBS-free medium to remove any residual CUR-SNEDDS. Afterward, the oxidative stress-provoking agent, HQ (Sigma-Aldrich), was added. The cells were exposed to 600 μM HQ for 2 h to achieve 60–70% viability, as determined in the control samples [44]. Cell viability was assessed using the MTT assay. Cells were assessed with microscopy before the viability test to confirm the correlation of the absorbance readings from the MTT assay.

The nature of series [2]: Solubility of CUR in water (inherent vs apparent with SNEDDS). The class given is physicochemical.
In series [3] the test system is HCE cells. Briefly: Cytocompatibility, MTT assay, HCE cells. The class given is cell-based, human. To be noted: 5 μM CUR, 3 h, vs control. Here is the method: HCE cells were cultured at 37 °C and 5% CO2 using a growth medium consisting of 1:1 DMEM/F12 (Gibco by Life Technologies Limited, Paisley, UK), 15% FBS (fetal bovine serum; Gibco by Life Technologies Limited, Paisley, UK), 100 U/mL penicillin, 0.1 mg/mL streptomycin (penicillin/streptomycin solution from EuroClone spa, Pero, Italy), 0.3 mg/mL L-glutamine (EuroClone spa, Pero, Italy), 10 ng/mL EGF (Recombinant Human Epidermal Growth Factor; Gibco by Life Technologies Corporation, Carlsbad, CA, USA), 5 μg/mL human recombinant insulin (Gibco by Life Technologies Corporation, Grand Island, NY, USA), and 0.5% sterile filtrated DMSO (Sigma-Aldrich, St. Louis, MO, USA), 0.1 μg/mL cholera toxin (Sigma-Aldrich, St. Louis, MO, USA). The fresh growth medium was changed for the cells every 2–3 days. When reaching a 75–80% confluence, the cells were either subcultured 1:5–1:30 or seeded for the experiment. Upon confluence, the cells were washed with 1xDPBS (Gibco by Life Technologies Limited, Paisley, UK) and detached with 0.05% trypsin–EDTA (Gibco by Life Technologies Limited, Paisley, UK). […] Cell viability was assessed using the 3-(4,5-dimethyl-thiazol-2-yl)-2,5-diphenyltetrazolium bromide (MTT) assay. Cells were assessed with microscopy before the viability test to confirm the correlation of the absorbance readings from the MTT assay.
On the technique in general: Tetrazolium assays rely on reduction of a dye to a coloured formazan, in cell work by metabolically active cells.

Series [4] can be described thus: CUR solubility in different vehicles (oils and surfactants). The class given is physicochemical. To be noted: for solubility at 24 h: 25 °C, thermodynamic from solid. The protocol: Different types of oils were selected based on biocompatibility and biodegradability: Mygliol® 812, Capryol® PGMC and Capryol® 90, Tegin® O, Isopropylmyristate (IPM), and Castor oil. Five surfactants, including Tween® 20, Tween® 80, Cremophor EL®, Solutol ®HS15, and Transcutol® P, were selected for the experiment in order to investigate the best materials for CUR-SNEDDS preparation. […] The mixtures were stirred (350 rpm) using a magnetic stirrer for 24 h. The samples were covered in order to prevent photo-degradation. […] The absorbance reading occurred at 422 nm.

Series [5] concerns ARPE-19 cells. Briefly: Cytocompatibility, MTT assay, ARPE-19 cells. To be noted: 5 μM CUR, 3 h, vs control. The class given is cell-based, human. The protocol: The ARPE-19 cell line obtained from the American Type Culture Collection (ATCC, Manassas, VA, USA) was used in the study. Cells were cultured in Dulbecco’s modified eagle medium/nutrition mix F-12 (1:1; Gibco, Paisley, UK) supplemented with 10% fetal bovine serum (FBS; Hyclone, Logan, UT, USA), 100 U/mL penicillin (Lonza, Walkersville, MD), and 2 mM L-glutamine (Lonza, Walkersville, MD, USA). The cells were grown at 37 °C in a humidified 5% CO2 atmosphere. The experiments were performed 24 h after seeding using an FBS-free medium. […] The cells were exposed for 3 h before the cell viability tests. Cell viability was assessed using the MTT assay. Cells were assessed with microscopy before the viability test to confirm the correlation of the absorbance readings from the MTT assay.

The test system of series [6] is ARPE-19 cells. The series is described as follows: Indirect quantification of CUR uptake (CUR recovered in medium). The class given is cell-based, human. The protocol: ARPE-19 cells were seeded on acid-etched coverslips placed into a 6-well plate with a seeding density of 850,000 cells/well and incubated at 37 °C for 24 h. The cells were then incubated with media containing AC at the same concentration that was used for the cytotoxicity experiment. After 3 h of exposure to the AC and C formulations, the coverslips were removed, washed twice with PBS, and fixed with 4% paraformaldehyde (PFA) for 15 min. Subsequently, the PFA was removed, followed by two washes with PBS. […] Cell imaging was conducted using a ZEISS Axio Imager M2 fluorescent microscope (Carl Zeiss Microscopy Deutschland GmbH, Oberkochen, Germany). […] The experiments were conducted 24 h after seeding, using an FBS-free medium. The cells were rinsed once with a serum-free medium to remove the FBS residues and then exposed to 0.1–2 μM concentrations of SNEDD-CUR diluted in a medium. After a 3 h exposure period, the medium was removed and collected into another 96-well plate.

The test system of series [7] is cell proliferation. To be noted: cited from earlier work.
Series [8] can be described thus: Stability of CUR in PBS and in SNEDDS under storage conditions. The note with it: PBS, 6 h. The class given is physicochemical. The protocol:
HPLC analysis was performed on a reversed-phase C18 column (4.6 mm × 150 mm, 5 μm, ZORBAX Eclipse SB-C18) at 25 °C. The mobile phase was composed of water with 4% acetic acid and acetonitrile (44:56, v/v), filtered through a 0.22 μm Milli-pore filter and degassed prior to use. The flow rate was 0.850 mL/min, and the eluent was detected by a DAD detector at 430 nm.
The preparation of the sample AC followed the procedure described in Section 4.3. The sample was divided into four glass vials, with each set of vials being stored under different conditions, namely at 4 °C dark, 25 °C dark, 25 °C light, and 40 °C dark, to assess the typical storage conditions and investigate possible protection from degradation phenomena. Sample C was prepared differently. […] The mixture was then subjected to magnetic stirring at 350 rpm for 20 min. After stirring, the tube was centrifuged at 13,000 rpm for 20 min at 25 °C. The supernatant was collected and divided into four glass vials, each representing a different storage condition compared to the AC sample. […] HPLC analysis was employed to detect any variations in absorbance.

The test system of series [9] is ARPE-19 cells. Briefly: Cell viability in HQ-induced oxidative stress (MTT). The class given is cell-based, human. To be noted: ARPE-19, 600 μM HQ. The protocol: as §1

`Oc1ccc(O)cc1` [HQ, hydroquinone]: in series [1], the viability (commonly the share of living cells, or the viability signal relative to a control) at 2 h, 600 μM was 70%.

For the molecule `COc1cc(/C=C/C(=O)CC(=O)/C=C/c2ccc(O)c(OC)c2)ccc1O` [CUR, Curcumin], the solubility – broadly, the concentration that dissolves in the medium under given conditions – in series [2] is under 1 µg/mL. For the same molecule, the “Reduction in cell viability” value in [3] and in [5] was “not observed” in each case. The solubility at 24 h in series [4] (aqueous with cosolvent or surfactant or cyclodextrin, in Tween 80) is 6800 µg/mL (≈ 18.5 mM); in series [4] (oil or lipid, in Capryol 90), 8360 µg/mL (≈ 22.7 mM); in [4] (organic solvent or mixture, in Transcutol P), 4610 µg/mL (≈ 12.5 mM). The “Solubility of CUR” value in series [4] (in Capryol PGMC) was 8000 µg/mL. Also, the “CUR recovered in the medium (not internalized)” value in [6] (ARPE-19, 3 h, listed as free CUR) worked out at 100%. In series [6] (ARPE-19, concentration not stated (discussion)), this molecule displayed a CUR internalized of 0%. In addition, in series [6] (ARPE-19, higher concentrations such as 1 μM and 2 μM, 3 h), the “CUR internalized inside the cells” value was determined as 1%. For the same molecule, the 50% inhibitory concentration (IC50) – broadly, the concentration at which inhibition is half-maximal – in [7] (anticancer agent and cell proliferation blocker) was about 10 µM. The “Concentrations at which CUR acts as anticancer agent and cell proliferation blocker” value in series [7] was 5 to 10 µM. The “CUR remaining / recovered” value in [8] (4 °C) is 57%; in series [8] (25 °C (r.t.) dark) it was “less than 10%”; in [8] (25 °C (r.t.) dark, listed as Native CUR) it was 9%; in [8] (25 °C light), “completely degraded”; in series [8] (40 °C dark), “completely degraded”. The “Effect on cell viability compared to cells exposed to HQ” value in [9] was “no significant difference”.

(Values after article PMC11859040 (Pharmaceuticals, 2025).)
